The values below are quoted from earlier work in CN103893129A, “帕潘立酮缓释微球及其注射剂和该缓释微球的制备方法” (CHONGQING DAXIN PHARMACEUTICALS Co Ltd OF PKU INTERNATIONAL …, priority 2012, dated 2014).

This series has as its system schizophrenia (精神分裂症).

For `Cc1nc2n(c(=O)c1CCN1CCC(c3noc4cc(F)ccc34)CC1)CCCC2O` (centres unmarked) [帕潘立酮, 6,7,8,9-四氢-3-(2-(4-(6-氟-1,2-苯并异唑-3-基)-1-哌啶基)乙基)-9-羟基-2-甲基-4H-吡啶并[2,1-a]嘧啶-4-酮], the “efficacy on positive and negative symptoms of schizophrenia” value (clinical) is given as “对精神分裂症阳性症状和阴性症状均有疗效”. For the same molecule, the “relapse rate of schizophrenia” value (patients) is “可有效延迟精神分裂症的复发率”.
